From patent publication US12048699B2, “Cancer treatment methods based on TP53 mutation status and hypermutation” (TAKEDA PHARMACEUTICAL COMPANY LIMITED, priority 2018, dated 2024)

What was measured:
human hepatocytes = assay: metabolism in human hepatocytes; assay type: in vitro ADME; details: metabolite structures shown in drawing 7
[1] = system: human primary tumor xenograft models; assay: phase 2-like preclinical study in human primary tumor xenograft (PDX) models, % ΔTGI response vs mutation status; assay type: in vivo, Balb/c nude mice; details: 77 PDX models, crystalline form A of Compound 1 hemihydrate, 60 mg/kg, Bid, po, 21 days, 3 days on 4 days off
From the text: Compound 1 is an investigational drug under clinical development for cancer treatment. Compound 1 achieves anti-tumor effects by inhibiting Cdc7 kinase, which is involved in DNA replication and repair. Predictive biomarker identification was investigated using data derived from a phase 2-like preclinical study, that is human primary tumor xenograft models using Balb/c nude mice ([…], female, 6-8 weeks old, 18-22 g). For each model, 6 tumor bearing mice were randomized into 2 groups. Tumor fragments from seed mice inoculated with selected PDX tumors were harvested and used for inoculation into Balb/c nude mice. Each mouse was inoculated subcutaneously at the right flank with one tumor fragment (2-3 mm in diameter). The treatments were started when mean tumor size reached approximately 200-250 mm^3. Mice were dosed orally with either vehicle or Compound 1 (crystalline form A of Compound 1 hemihydrate, 60 mg/kg, Bid, po, 21 days, 3 days on 4 days off). TP53 mutation status and hypermutation status as measured by microsatellite instability/stability (MSI/MSS) status were identified as predictive biomarkers for cancer treatment with Compound 1.
Whole exome sequencing (WES) and RNA sequencing (RNASeq) were done for 92 xenograft models whose cancer types are colon (n=40), pancreas (n=24), non-small cell lung (n=23), and ovary cancer (n=5).
In this study, % ΔTGI (percent delta tumor growth inhibition) was used and its mathematical definition is as follows.
In the above equation, Tt and T0 represent the sizes of tumor in treatment at time t and 0 and similarly Ct and C0 mean the sizes of tumor in control (vehicle) at the same time points t and 0. Therefore, a large % ΔTGI indicates a higher degree of tumor growth inhibition in treatment than in vehicle.
Binary response was inferred by categorizing % ΔTGI, so that samples were classified as responders with high % ΔTGI and non-responders with low % ΔTGI. Chi-square test was run to evaluate the potential association between the class labels (responder vs. non-responder) and mutational status (MUT vs. WT). […]

## Cc1[nH]ncc1-c1cc2nc([C@@H]3CC4CCN3CC4)[nH]c(=O)c2s1 [Compound 1, 2-[(2S)-1-azabicyclo[2.2.2]oct-2-yl]-6-(3-methyl-1H-pyrazol-4-yl)thieno[3,2-d]pyrimidin-4(3H)-one]
Human hepatocytes
  metabolism to metabolites: can be metabolized to compounds of the following structures
[1]; Chi-square test / decision tree
  association of TP53 mutation with response (% ΔTGI, responder vs. non-responder): most significantly associated with response
[1]; decision tree
  association of CHD family genes mutation with response (% ΔTGI, responder vs. non-responder): associated with non-response
  association of hypermutation with response (% ΔTGI, responder vs. non-responder): associated with non-response
